Reference: PubChem BioAssay (NCI)
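Each compound was tested at five concentrations against cells in 96-well plates for 48 hours. GI50 marks 50% less growth. TGI is the concentration that stops growth completely.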

Assays:
Assay in all cases: growth of human tumour cells (NCI), 48 h
[1] = system: BT-549 breast
[2] = system: MALME-3M melanoma
[3] = system: OVCAR-5 ovarian
[4] = system: NCI-H522 lung
[5] = system: LOX IMVI melanoma
[6] = system: SK-MEL-5 melanoma
[7] = system: IGROV1 ovarian
[8] = system: HOP-92 NSCLC
[9] = system: HCT-15 colon
[10] = system: HT29 colon
[11] = system: HCC-2998 colon
[12] = system: SF-295 CNS
[13] = system: UO-31 renal
[14] = system: HL-60(TB) leukemia
[15] = system: UACC-62 melanoma
[16] = system: OVCAR-3 ovarian
[17] = system: SF-539 CNS
[18] = system: TK-10 renal
[19] = system: SR leukemia
[20] = system: U251 CNS
[21] = system: MCF7 breast
[22] = system: PC-3 prostate
[23] = system: SN12C renal
[24] = system: HCT-116 colon
[25] = system: 786-0 renal
[26] = system: CAKI-1 renal
[27] = system: NCI/ADR-RES ovarian
[28] = system: HS 578T breast
[29] = system: NCI-H226 lung
[30] = system: SF-268 CNS
[31] = system: RXF 393 renal
[32] = system: SK-OV-3 ovarian
[33] = system: MDA-MB-231 breast
[34] = system: SNB-19 CNS
[35] = system: CCRF-CEM leukemia
[36] = system: HOP-62 NSCLC
[37] = system: T-47D breast
[38] = system: MOLT-4 leukemia
[39] = system: KM12 colon
[40] = system: DU-145 prostate
[41] = system: MDA-MB-435
[42] = system: NCI-H23 lung
[43] = system: A498 renal
[44] = system: SNB-75 CNS
[45] = system: SK-MEL-28 melanoma
[46] = system: M14 melanoma
[47] = system: COLO 205 colon
[48] = system: K-562 leukemia
[49] = system: EKVX NSCLC
[50] = system: SK-MEL-2 melanoma
[51] = system: OVCAR-8 ovarian
[52] = system: RPMI-8226 leukemia
[53] = system: SW-620 colon
[54] = system: UACC-257 melanoma
[55] = system: A549 NSCLC
[56] = system: OVCAR-4 ovarian
[57] = system: NCI-H460 lung
[58] = system: ACHN renal

Cc1c(C(N)=O)sc2c1C(=O)N(Cc1ccccc1)C1=NN=C(c3ccc(Cl)cc3)CN12
GI50 [1]: 3.66 µM | TGI [1]: 16.4 µM | GI50 [2]: 3.29 µM | TGI [2]: 16.4 µM | GI50 [3]: 8.47 µM | TGI [3]: 21.1 µM | GI50 [4]: 3.19 µM | TGI [4]: 13.2 µM | GI50 [5]: 1.62 µM | TGI [5]: 10.8 µM | GI50 [6]: 1.84 µM | TGI [6]: 4.76 µM | GI50 [7]: 3.13 µM | TGI [7]: 22.3 µM | GI50 [8]: 3.89 µM | TGI [8]: 14.7 µM | GI50 [9]: 0.688 µM | TGI [9]: 17.9 µM | GI50 [10]: 4.8 µM | TGI [10]: 16.1 µM | GI50 [11]: 3.97 µM | TGI [11]: 17 µM | GI50 [12]: 2.31 µM | TGI [12]: 14.7 µM | GI50 [13]: 2.24 µM | TGI [13]: 15.3 µM | GI50 [14]: 2.59 µM | TGI [14]: 46.1 µM | GI50 [15]: 2.23 µM | TGI [15]: 5.9 µM | GI50 [16]: 3.75 µM | TGI [16]: 16.4 µM | GI50 [17]: 3.39 µM | TGI [17]: 11 µM | GI50 [18]: 6.52 µM | TGI [18]: 18.9 µM | GI50 [19]: 3.14 µM | TGI [19]: 50.7 µM | GI50 [20]: 2.39 µM | TGI [20]: 13.2 µM | GI50 [21]: 3.59 µM | TGI [21]: 14.9 µM | GI50 [22]: 3.84 µM | TGI [22]: 20.9 µM | GI50 [23]: 3.42 µM | TGI [23]: 15.6 µM | GI50 [24]: 3.44 µM | TGI [24]: 14.5 µM | GI50 [25]: 2.65 µM | TGI [25]: 6.92 µM | GI50 [26]: 1.17 µM | TGI [26]: 10.3 µM | GI50 [27]: 1.76 µM | TGI [27]: 11.3 µM | GI50 [28]: 5.88 µM | TGI [28]: 34.2 µM | GI50 [29]: 2.49 µM | TGI [29]: 11.8 µM | GI50 [30]: 2.63 µM | TGI [30]: 14.1 µM | GI50 [31]: 2.16 µM | TGI [31]: 7.71 µM | GI50 [32]: 3.71 µM | TGI [32]: 15.8 µM | GI50 [33]: 3.54 µM | TGI [33]: 16 µM | GI50 [34]: 3.71 µM | TGI [34]: 16.1 µM | GI50 [35]: 1.49 µM | TGI [35]: 43.1 µM | GI50 [36]: 3.62 µM | TGI [36]: 18.5 µM | GI50 [37]: 3.82 µM | TGI [37]: 16.4 µM | GI50 [38]: 2.36 µM | TGI [38]: 40.1 µM | GI50 [39]: 4.07 µM | TGI [39]: 16.6 µM | GI50 [40]: 3.44 µM | TGI [40]: 14.5 µM | GI50 [41]: 4.9 µM | TGI [41]: 26.1 µM | GI50 [42]: 3.86 µM | TGI [42]: 19.4 µM | GI50 [43]: 2.88 µM | TGI [43]: 12.7 µM | GI50 [44]: 10.6 µM | TGI [44]: 23.7 µM | GI50 [45]: 5.67 µM | TGI [45]: 18.5 µM | GI50 [46]: 2.38 µM | TGI [46]: 6.75 µM | GI50 [47]: 4.42 µM | TGI [47]: 16.9 µM | GI50 [48]: 2.97 µM | TGI [48]: > 100 µM | GI50 [49]: 4.7 µM | TGI [49]: 29.8 µM | GI50 [50]: 6.1 µM | TGI [50]: 18.6 µM | GI50 [51]: 2.97 µM | TGI [51]: 15.2 µM | GI50 [52]: 4.56 µM | TGI [52]: > 100 µM | GI50 [53]: 3.99 µM | TGI [53]: 18.4 µM | GI50 [54]: 3.75 µM | TGI [54]: 16.5 µM | GI50 [55]: 3.57 µM | TGI [55]: 13.5 µM | GI50 [56]: 2.81 µM | TGI [56]: 15.8 µM | GI50 [57]: 2.13 µM | TGI [57]: 7.69 µM | GI50 [58]: 3.02 µM | TGI [58]: 11.6 µM
